Data as given in PubChem BioAssay AID1963873 (Molecular Pharmacology Branch, DTP, NCI, 2024).

Test system: 276233-004-R-J1-PDC KRAS spheroids with HUVEC/MSC, viability
Test: Anticancer human tumor 276233-004-R-J1-PDC patient-derived colon adenocarcinoma cell line growth inhibition [KRAS2]
Details: for viability, T/C: stronger effect = lower value
Method in brief: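 Combination screen of spheroid viability in tumor-cell co-cultures with endothelial (HUVEC) and mesenchymal stem cell stroma. Each agent was tested in half-log dilutions, topping at clinical Cmax or at 10 microM without a known Cmax.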

[1] = curve of first compound, second compound 0.1 µM
[2] = curve of first compound, second compound 0.316 µM
[3] = curve of first compound, second compound 1 µM
[4] = curve of first compound, second compound 3.16 µM
[5] = curve of first compound, second compound 10 µM
[6] = second compound 0.1 µM, first compound 0.0316 µM
[7] = second compound 0.316 µM, first compound 0.0316 µM
[8] = second compound 1 µM, first compound 0.0316 µM
[9] = second compound 3.16 µM, first compound 0.0316 µM
[10] = second compound 10 µM, first compound 0.0316 µM
[11] = second compound 0.1 µM, first compound 0.1 µM
[12] = second compound 0.1 µM, first compound 0.316 µM
[13] = second compound 0.1 µM, first compound 1 µM
[14] = second compound 0.1 µM, first compound 3.16 µM
[15] = second compound 0.1 µM, first compound 10 µM
[16] = second compound 0.316 µM, first compound 0.1 µM
[17] = second compound 0.316 µM, first compound 0.316 µM
[18] = second compound 0.316 µM, first compound 1 µM
[19] = second compound 0.316 µM, first compound 3.16 µM
[20] = second compound 0.316 µM, first compound 10 µM
[21] = second compound 1 µM, first compound 0.1 µM
[22] = second compound 1 µM, first compound 0.316 µM
[23] = second compound 1 µM, first compound 1 µM
[24] = second compound 1 µM, first compound 3.16 µM
[25] = second compound 1 µM, first compound 10 µM
[26] = second compound 3.16 µM, first compound 0.1 µM
[27] = second compound 3.16 µM, first compound 0.316 µM
[28] = second compound 3.16 µM, first compound 1 µM
[29] = second compound 3.16 µM, first compound 3.16 µM
[30] = second compound 3.16 µM, first compound 10 µM
[31] = second compound 10 µM, first compound 0.1 µM
[32] = second compound 10 µM, first compound 0.316 µM
[33] = second compound 10 µM, first compound 1 µM
[34] = second compound 10 µM, first compound 3.16 µM
[35] = second compound 10 µM, first compound 10 µM
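Also: cells exposed to agents for seven days before viability read.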
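For viability, T/C in this document: 100% = DMSO vehicle control wells and lower values mean fewer viable cells.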

In the case of `CC(=O)Nc1cccc(-n2c(=O)n(C3CC3)c(=O)c3c(Nc4ccc(I)cc4F)n(C)c(=O)c(C)c32)c1` + C=CC(=O)N1CCN(c2nc(=O)n(-c3c(C)ccnc3C(C)C)c3nc(-c4c(O)cccc4F)c(F)cc23)C(C)C1, the IC50 [1] is reported as 6.44 nM, the IC50 [2] is reported as 9.46 nM and the IC50 [3] is reported as 9.28 nM. The IC50 [4] was 6.41 nM, the IC50 [5] was 2.45 nM and the viability, T/C (second compound 0.1 µM, first compound 0.0001 µM) was 89.9%. It also gave a viability, T/C (second compound 0.1 µM, first compound 0.000316 µM) of 97.5%, a viability, T/C (second compound 0.1 µM, first compound 0.001 µM) of 85.7% and a viability, T/C (second compound 0.1 µM, first compound 0.00316 µM) of 58.9%. The viability, T/C (second compound 0.1 µM, first compound 0.01 µM) was 45.4%, the viability, T/C [6] was 21.3% and the viability, T/C (second compound 0.316 µM, first compound 0.0001 µM) was 87.1%. The viability, T/C (second compound 0.316 µM, first compound 0.000316 µM) was 84.9%, the viability, T/C (second compound 0.316 µM, first compound 0.001 µM) was 76.9% and the viability, T/C (second compound 0.316 µM, first compound 0.00316 µM) was 74%. The viability, T/C (second compound 0.316 µM, first compound 0.01 µM) was 47.9%, the viability, T/C [7] was 18.6% and the viability, T/C (second compound 1 µM, first compound 0.0001 µM) was 102%. The viability, T/C (second compound 1 µM, first compound 0.000316 µM) was 85.5%, the viability, T/C (second compound 1 µM, first compound 0.001 µM) was 80% and the viability, T/C (second compound 1 µM, first compound 0.00316 µM) was 71.9%. For the same compound, the viability, T/C (second compound 1 µM, first compound 0.01 µM) was 49.5%, the viability, T/C [8] was 19.4% and the viability, T/C (second compound 3.16 µM, first compound 0.0001 µM) was 75.2%. For the same compound, the viability, T/C (second compound 3.16 µM, first compound 0.000316 µM) was 96.3%, the viability, T/C (second compound 3.16 µM, first compound 0.001 µM) was 65.8% and the viability, T/C (second compound 3.16 µM, first compound 0.00316 µM) was 59.5%. For the same compound, the viability, T/C (second compound 3.16 µM, first compound 0.01 µM) was 45.9%, the viability, T/C [9] was 24.2% and the viability, T/C (second compound 10 µM, first compound 0.0001 µM) was 74.2%. It also gave a viability, T/C (second compound 10 µM, first compound 0.000316 µM) of 73%, a viability, T/C (second compound 10 µM, first compound 0.001 µM) of 57.6% and a viability, T/C (second compound 10 µM, first compound 0.00316 µM) of 45.4%. The viability, T/C (second compound 10 µM, first compound 0.01 µM) was 36.8% and the viability, T/C [10] was 21.3%.

With `CCNC(=O)CC1N=C(c2ccc(Cl)cc2)c2cc(OC)ccc2-n2c(C)nnc21` (centres undefined) + CC1OCC2(CCN(c3cnc(Sc4ccnc(N)c4Cl)c(N)n3)CC2)C1N the IC50 [1] was greater than 10000 nM, the IC50 [2] was 7120 nM and the IC50 [3] was 3160 nM. The IC50 [4] was 392 nM, the IC50 [5] was 530 nM and the viability, T/C [6] was 94.5%. It also gave a viability, T/C [11] of 85.6%, a viability, T/C [12] of 71.5% and a viability, T/C [13] of 66.8%. It also gave a viability, T/C [14] of 56.4%, a viability, T/C [15] of 72.8% and a viability, T/C [7] of 89%. It also gave a viability, T/C [16] of 73.1%, a viability, T/C [17] of 73.6% and a viability, T/C [18] of 58.2%. For the same compound, the viability, T/C [19] was 52.5%, the viability, T/C [20] was 49.1% and the viability, T/C [8] was 79.8%. The viability, T/C [21] was 71.5%, the viability, T/C [22] was 63.9% and the viability, T/C [23] was 52.5%. The viability, T/C [24] was 46.9%, the viability, T/C [25] was 52.2% and the viability, T/C [9] was 72.6%. The viability, T/C [26] was 71.6%, the viability, T/C [27] was 51.5% and the viability, T/C [28] was 44.4%. It also gave a viability, T/C [29] of 43.3%, a viability, T/C [30] of 41.4% and a viability, T/C [10] of 55%. For the same compound, the viability, T/C [31] was 56.6%, the viability, T/C [32] was 52.2% and the viability, T/C [33] was 48.2%. For the same compound, the viability, T/C [34] was 41.6% and the viability, T/C [35] was 42.4%.

Work on `CC(C)NCC(C(=O)N1CCN(c2ncnc3c2C(C)CC3O)CC1)c1ccc(Cl)cc1` (centres undefined) + CC1OCC2(CCN(c3cnc(Sc4ccnc(N)c4Cl)c(N)n3)CC2)C1N yielded an IC50 [1] greater than 10000 nM, an IC50 [2] of 2080 nM and an IC50 [3] of 697 nM. For the same compound, the IC50 [4] was 343 nM, the IC50 [5] was 183 nM and the viability, T/C [6] was 77.2%. It also gave a viability, T/C [11] of 75.2%, a viability, T/C [12] of 56.3% and a viability, T/C [13] of 65.9%. It also gave a viability, T/C [14] of 56.1%, a viability, T/C [15] of 51.5% and a viability, T/C [7] of 90.4%. It also gave a viability, T/C [16] of 69%, a viability, T/C [17] of 55.8% and a viability, T/C [18] of 52.8%. For the same compound, the viability, T/C [19] was 49.5%, the viability, T/C [20] was 47.5% and the viability, T/C [8] was 68%. The viability, T/C [21] was 59.5%, the viability, T/C [22] was 48.4% and the viability, T/C [23] was 52.8%. The viability, T/C [24] was 48.1%, the viability, T/C [25] was 40.2% and the viability, T/C [9] was 63.3%. It also gave a viability, T/C [26] of 58.4%, a viability, T/C [27] of 52.1% and a viability, T/C [28] of 41.4%. The viability, T/C [29] was 37.1%, the viability, T/C [30] was 31.5% and the viability, T/C [10] was 59.1%. For the same compound, the viability, T/C [31] was 57%, the viability, T/C [32] was 38.1% and the viability, T/C [33] was 41.7%. It also gave a viability, T/C [34] of 36.1% and a viability, T/C [35] of 19.1%.

Compound `CC(C)NCC(C(=O)N1CCN(c2ncnc3c2C(C)CC3O)CC1)c1ccc(Cl)cc1` (centres undefined) + CNCc1ccccc1-c1csc(C(C)Nc2nc(C)nc3cc(OC)c(OC)cc23)c1 has an IC50 [1] greater than 10000 nM, an IC50 [2] greater than 10000 nM and an IC50 [3] of 563 nM. The IC50 [4] was less than 31.6 nM, the IC50 [5] was less than 31.6 nM and the viability, T/C [6] was 77.2%. For the same compound, the viability, T/C [11] was 69.9%, the viability, T/C [12] was 79.5% and the viability, T/C [13] was 78.8%. For the same compound, the viability, T/C [14] was 66%, the viability, T/C [15] was 53.6% and the viability, T/C [7] was 88.3%. The viability, T/C [16] was 96.1%, the viability, T/C [17] was 76.4% and the viability, T/C [18] was 70.6%. For the same compound, the viability, T/C [19] was 70.4%, the viability, T/C [20] was 58.6% and the viability, T/C [8] was 66.9%. For the same compound, the viability, T/C [21] was 50.1%, the viability, T/C [22] was 78.5% and the viability, T/C [23] was 34.9%. The viability, T/C [24] was 23.9%, the viability, T/C [25] was 38.2% and the viability, T/C [9] was 0.57%. For the same compound, the viability, T/C [26] was 0.54%, the viability, T/C [27] was 0.43% and the viability, T/C [28] was 0.58%. For the same compound, the viability, T/C [29] was 0.56%, the viability, T/C [30] was 0.49% and the viability, T/C [10] was 0.2%. It also gave a viability, T/C [31] of 0.22%, a viability, T/C [32] of 0.18% and a viability, T/C [33] of 0.2%. It also gave a viability, T/C [34] of 1.04% and a viability, T/C [35] of 0.31%.

Compound `COc1cc(Nc2ncc3c(n2)-c2ccc(Cl)cc2C(c2c(F)cccc2OC)=NC3)ccc1C(=O)O` + COc1cc2nc(C)nc(NC(C)c3cc(N)cc(C(F)(F)F)c3)c2cc1OC1CCOC1 has an IC50 [1] greater than 10000 nM, an IC50 [2] greater than 10000 nM and an IC50 [3] greater than 10000 nM. The IC50 [4] was greater than 10000 nM, the IC50 [5] was less than 31.6 nM and the viability, T/C [6] was 79.9%. The viability, T/C [11] was 78.9%, the viability, T/C [12] was 74.3% and the viability, T/C [13] was 68%. For the same compound, the viability, T/C [14] was 61.6%, the viability, T/C [15] was 57.1% and the viability, T/C [7] was 83.3%. The viability, T/C [16] was 69.9%, the viability, T/C [17] was 70.9% and the viability, T/C [18] was 69.5%. For the same compound, the viability, T/C [19] was 67.2%, the viability, T/C [20] was 54.6% and the viability, T/C [8] was 91.7%. It also gave a viability, T/C [21] of 67.4%, a viability, T/C [22] of 63.5% and a viability, T/C [23] of 68%. The viability, T/C [24] was 58.4%, the viability, T/C [25] was 55.2% and the viability, T/C [9] was 70%. It also gave a viability, T/C [26] of 60.4%, a viability, T/C [27] of 56.6% and a viability, T/C [28] of 54.1%. It also gave a viability, T/C [29] of 74.6%, a viability, T/C [30] of 57.4% and a viability, T/C [10] of 29.1%. For the same compound, the viability, T/C [31] was 37.9%, the viability, T/C [32] was 30.9% and the viability, T/C [33] was 21.2%. For the same compound, the viability, T/C [34] was 31.4% and the viability, T/C [35] was 17.6%.

`COc1cc2nccc(Oc3ccc(NC(=O)C4(C(=O)Nc5ccc(F)cc5)CC4)cc3)c2cc1OC` was tested, and the viability, T/C (compound 0.0316 µM) was 93.2% [middle of 5 runs], the viability, T/C (compound 0.1 µM) was 89.3% [middle of 5 runs] and the viability, T/C (compound 3.16 µM) was 93.1% [middle of 5 runs]. The IC50 (curve of compound) was greater than 10000 nM.
